Measured values as given in BigSolDB 2.1.

C#C[C@]1(O)CC[C@H]2[C@@H]3CCC4=CC(=O)CC[C@@H]4[C@H]3C(=C)C[C@@]21CC
solubility (mole fraction)
Settings | in DMF | in THF | in acetone | in ethanol | in ethyl acetate | in isopropanol | in methyl acetate | in n-butanol | in n-propanol | in water
273.15 K | 0.0757 | 0.0739 | 0.012 | 0.0017 | 0.0189 | 0.00463 | 0.0104 | 0.00421 | 0.00452 | 1.38e-05
278.15 K | 0.0792 | 0.0891 | 0.0133 | 0.00209 | 0.022 | 0.00545 | 0.0119 | 0.00514 | 0.00514 | 1.64e-05
283.15 K | 0.0825 | 0.106 | 0.0148 | 0.00249 | 0.0249 | 0.00633 | 0.0135 | 0.00615 | 0.00585 | 1.92e-05
288.15 K | 0.0865 | 0.125 | 0.0165 | 0.00293 | 0.0291 | 0.00731 | 0.0153 | 0.00742 | 0.00657 | 2.24e-05
293.15 K | 0.0888 | 0.148 | 0.0184 | 0.00343 | 0.0338 | 0.00851 | 0.017 | 0.00904 | 0.00753 | 2.6e-05
298.15 K | 0.0965 | 0.173 | 0.0198 | 0.00412 | 0.0383 | 0.00994 | 0.019 | 0.0109 | 0.00865 | 3.1e-05
303.15 K | 0.0974 | 0.2 | 0.0224 | 0.00494 | 0.043 | 0.0115 | 0.0211 | 0.0126 | 0.00974 | 3.65e-05
308.15 K | 0.101 | 0.223 | 0.0248 | 0.00593 | 0.0476 | 0.0132 | 0.0229 | 0.0148 | 0.0112 | 4.25e-05
313.15 K | 0.105 | 0.263 | 0.0273 | 0.00695 | 0.0539 | 0.0154 | 0.025 | 0.0171 | 0.0124 | 4.91e-05
318.15 K | 0.109 | 0.299 | 0.03 | 0.00817 | 0.059 | 0.0178 | 0.0271 | 0.0198 | 0.0142 | 5.62e-05
323.15 K | 0.115 | 0.332 | 0.0335 | 0.00967 | 0.0648 | 0.0209 | 0.0294 | 0.0227 | 0.0159 | 6.37e-05
